How the values were obtained:
[1] = stability in Caco-2 intestinal epithelial cell extracts (LC-MS); type: in vitro ADME; settings: Caco-2 cell extracts
Description: Peptides administered in vivo are susceptible to protease cleavage, particularly those administered to the intestine. PIK, D-PIK, D-PIK(reversed) and D-PIK(int.) were each incubated with rat intestinal fluid and also with Caco-2 intestinal epithelial cell extracts, which contain a mixture brush border and cytosolic proteases. Luminal intestinal secretions were obtained by flushing isolated rat intestines (duodenum to ileum) with 10 ml of 20 mM of N-2-Hydroxyethylpiperazine-N′-2-ethanesulfonic acid (HEPES) buffer, pH 7.4. Discharged contents were centrifuged to remove solids and the supernatant filtered through a 0.20 μm filter prior to determining total protein content. Confluent Caco-2 cells were rinsed with PBS, lifted by brief trypsin treatment into a small volume of Dulbecco's modified Eagles's medium (DMEM) and washed twice with phosphate buffered saline (PBS). […] Protein concentrations of isolated intestinal fluid and lysed Caco-2 cell extracts were determined using the Bio-Rad Protein Assay. […] Samples were centrifuged and supernatants analyzed by LC-MS analysis to determine the cleavage pattern of PIK.
(§1) Residual peptide content was assessed by liquid chromatography-mass spectrometry (Tiller et al., Anal Bioanal Chem 2003; 377:788-802) and positive ion electrospray ionization.

[2] = stability in rat intestinal fluid (LC-MS); type: in vitro ADME
Description: Peptides administered in vivo are susceptible to protease cleavage, particularly those administered to the intestine. PIK, D-PIK, D-PIK(reversed) and D-PIK(int.) were each incubated with rat intestinal fluid and also with Caco-2 intestinal epithelial cell extracts, which contain a mixture brush border and cytosolic proteases. Luminal intestinal secretions were obtained by flushing isolated rat intestines (duodenum to ileum) with 10 ml of 20 mM of N-2-Hydroxyethylpiperazine-N′-2-ethanesulfonic acid (HEPES) buffer, pH 7.4. Discharged contents were centrifuged to remove solids and the supernatant filtered through a 0.20 μm filter prior to determining total protein content. Confluent Caco-2 cells were rinsed with PBS, lifted by brief trypsin treatment into a small volume of Dulbecco's modified Eagles's medium (DMEM) and washed twice with phosphate buffered saline (PBS). The final cell pellet was re-suspended in a small volume of lysis buffer (50 mM Tris-HCL, 2 mM EDTA, 20% glycerol at pH 7.4) and sonicated on ice. Protein concentrations of isolated intestinal fluid and lysed Caco-2 cell extracts were determined using the Bio-Rad Protein Assay. Peptide inhibitors of MLCK (1 mg/ml) in PBS were mixed with 0.1 mg protein of intestinal secretions or Caco-2 cell lysate on ice and incubated for at 4° C. and 37° C., respectively. At selected times, 100 μl aliquots were withdrawn and mixed with an equal volume of 0.5% TFA (in 50/50 water/acetonitrile) to terminate enzymatic reactions. Samples were centrifuged and supernatants analyzed by LC-MS analysis to determine the cleavage pattern of PIK.
as §1
The peptides listed in Table 2 (0.1 mg) were incubated with rat intestinal fluid (0.2 mg) at 37° C. for 0.5 min to 6 hours.

half-life ([2]; 0.1 mg peptide, rat intestinal fluid (0.2 mg), 37° C.): 12 s | hydrolysis on extended incubation ([2]; rat intestinal fluid, extended incubations): total hydrolysis
Substance: Ac-RKKYKYRRK-NH2 [PIK, Arg-Lys-Lys-Tyr-Lys-Tyr-Arg-Arg-Lys]
cleavage pattern [1]: cleaved PIK across the central palindromic sequence | initial cleavage pattern ([2]; rat intestinal fluid): peptide bonds at the C-terminal sides of K and R residues of PIK were initially cleaved

From patent US20100016242A1, “MYOSIN LIGHT CHAIN KINASE INHIBITORS AND METHODS OF USE” (THE UNIVERSITY OF CHICAGO, priority 2004, published 2010)
